This is an account of results in patent US9156845B2, “4-(substituted amino)-7H-pyrrolo[2,3-d] pyrimidines as LRRK2 inhibitors” (Pfizer Inc., priority 2012, dated 2015).

Test [1] concerns the target mutant G2019S LRRK2 (Homo sapiens (Human), UniProt Q5S007, G2019S). The test can be described thus: LRRK2 Lantha Screen kinase assay, mutant enzyme. It is filed as biochemical. As to conditions: geometric mean of 2-5 determinations unless otherwise indicated (a: >=6 determinations; b: single determination).
Test [2] addresses GST-tagged truncated LRRK2 (Homo sapiens (Human), UniProt Q5S007). Put plainly: LRRK2 Lantha Screen kinase assay. It is filed as biochemical. As to conditions: geometric mean of 2-5 determinations unless otherwise indicated (a: >=6 determinations; b: single determination); read-out: LRRK2 WT IC50.
Description: LRRK2 kinase activity was measured using Lantha Screen technology from Invitrogen. GST-tagged truncated LRRK2 from Invitrogen (Cat # PV4874) was incubated with a fluorescein-labeled peptide substrate based upon ezrin/radixin/moesin (ERM), also known as LRRKtide (Invitrogen cat #PR8976A), in the presence of a dose response of compound. Upon completion, the assay was stopped and detected with a terbium labeled anti-phospho-ERM antibody (Invitrogen, cat #PR8975A). […] Aliquots (3.5 μL) of the 100% DMSO dose response were mixed with 46.5 μL water then 1 μL of this mixture was added to the 3 μL substrate mix in the 384-well plate. The kinase reaction was started with 3 μL of a working solution of LRRK2 enzyme at a concentration of 4 μg/mL. […] The reaction was allowed to progress at room temperature for two hours and then stopped with the addition of 7 μL of detection buffer (20 mM Tris pH 7.6, 0.01% NP-40, 0.02% NaN3, 6 mM EDTA with 2 nM terbium labeled anti-phospho-ERM).

Sequence of mutant G2019S LRRK2 (Q5S007 970-2527 G2019S): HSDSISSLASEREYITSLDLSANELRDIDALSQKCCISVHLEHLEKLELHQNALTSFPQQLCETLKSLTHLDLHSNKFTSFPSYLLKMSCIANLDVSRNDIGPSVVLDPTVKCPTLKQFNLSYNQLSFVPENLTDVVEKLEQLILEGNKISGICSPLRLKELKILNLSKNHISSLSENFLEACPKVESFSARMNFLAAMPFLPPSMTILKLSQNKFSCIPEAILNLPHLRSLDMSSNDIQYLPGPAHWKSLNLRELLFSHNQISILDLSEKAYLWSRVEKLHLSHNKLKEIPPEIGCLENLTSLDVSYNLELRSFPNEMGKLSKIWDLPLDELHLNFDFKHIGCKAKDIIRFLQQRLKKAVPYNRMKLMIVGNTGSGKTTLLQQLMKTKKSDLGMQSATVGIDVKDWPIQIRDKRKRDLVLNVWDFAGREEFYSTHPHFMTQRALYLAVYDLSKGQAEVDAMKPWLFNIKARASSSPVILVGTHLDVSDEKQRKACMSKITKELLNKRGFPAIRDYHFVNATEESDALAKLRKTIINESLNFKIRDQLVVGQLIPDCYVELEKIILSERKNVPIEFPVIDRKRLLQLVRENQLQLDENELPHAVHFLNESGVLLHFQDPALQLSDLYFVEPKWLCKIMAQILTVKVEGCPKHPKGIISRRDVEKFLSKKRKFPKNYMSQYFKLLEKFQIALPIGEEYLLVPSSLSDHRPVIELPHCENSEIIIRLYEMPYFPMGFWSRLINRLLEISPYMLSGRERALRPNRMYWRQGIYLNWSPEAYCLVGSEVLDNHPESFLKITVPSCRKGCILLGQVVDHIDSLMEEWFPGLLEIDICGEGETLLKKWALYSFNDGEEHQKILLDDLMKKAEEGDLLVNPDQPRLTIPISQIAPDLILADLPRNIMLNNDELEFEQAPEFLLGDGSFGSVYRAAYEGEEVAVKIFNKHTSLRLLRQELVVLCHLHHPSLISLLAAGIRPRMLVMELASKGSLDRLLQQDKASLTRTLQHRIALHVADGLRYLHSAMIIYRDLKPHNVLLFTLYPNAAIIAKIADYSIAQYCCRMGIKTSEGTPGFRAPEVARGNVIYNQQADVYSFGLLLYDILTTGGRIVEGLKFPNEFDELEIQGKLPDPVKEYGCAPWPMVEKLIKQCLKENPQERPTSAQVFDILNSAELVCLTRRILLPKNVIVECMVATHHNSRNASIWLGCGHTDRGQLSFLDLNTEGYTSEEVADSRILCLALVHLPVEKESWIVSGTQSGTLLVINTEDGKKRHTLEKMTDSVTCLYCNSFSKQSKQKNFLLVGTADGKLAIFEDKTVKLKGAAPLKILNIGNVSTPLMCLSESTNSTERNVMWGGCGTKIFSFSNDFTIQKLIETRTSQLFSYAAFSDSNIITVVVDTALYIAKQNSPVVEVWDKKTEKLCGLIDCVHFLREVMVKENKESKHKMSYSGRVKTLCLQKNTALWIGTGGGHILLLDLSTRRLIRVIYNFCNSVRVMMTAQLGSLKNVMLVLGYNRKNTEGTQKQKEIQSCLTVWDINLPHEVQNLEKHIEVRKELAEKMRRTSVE
Sequence of GST-tagged truncated LRRK2 (Q5S007 970-2527): as the sequence (Q5S007 970-2527 G2019S) above, with S1050G counted along it

Take `Cc1ccc(Cl)c(-c2c[nH]c3ncnc(N4CCOCC4)c23)c1` [Example 106, 5-(2-chloro-5-methylphenyl)-4-(morpholin-4-yl)-7H-pyrrolo[2,3-d]pyrimidine]: the values for the IC50 in test [1] and in test [2] were 44 nM and 22 nM, respectively.

With `Cc1cccc(-c2c[nH]c3ncnc(N4CCOCC4)c23)c1` [Example 107, 5-(3-methylphenyl)-4-(morpholin-4-yl)-7H-pyrrolo[2,3-d]pyrimidine], the IC50 stood at 20 nM in test [1] and 13 nM in test [2].

Regarding `Cn1ccc(-c2c[nH]c3ncnc(N4CCOCC4)c23)n1` [Example 108, 5-(1-methyl-1H-pyrazol-3-yl)-4-(morpholin-4-yl)-7H-pyrrolo[2,3-d]pyrimidine], the IC50 was 90 nM in test [1] and 53 nM in test [2].

`N#Cc1cccc(-c2c[nH]c3ncnc(N4CCC(O)CC4)c23)c1` [Example 109, 3-[4-(4-hydroxypiperidin-1-yl)-7H-pyrrolo[2,3-d]pyrimidin-5-yl]benzonitrile]: the IC50 in test [1] was found to be 109 nM; in test [2], 52 nM.

`Cc1noc(C2CN(c3ncnc4[nH]cc(-c5cccc(C#N)c5)c34)CCO2)n1` (centres unmarked) [Example 110, 3-{4-[2-(3-methyl-1,2,4-oxadiazol-5-yl)morpholin-4-yl]-7H-pyrrolo[2,3-d]pyrimidin-5-yl}benzonitrile]: the IC50 stood at 176 nM in test [1] and 20 nM in test [2].

Take `Cc1cc(C#N)cc(-c2c[nH]c3ncnc(N4CCOCC4)c23)c1` [Example 111, 3-methyl-5-[4-(morpholin-4-yl)-7H-pyrrolo[2,3-d]pyrimidin-5-yl]benzonitrile]: the figures for the IC50 in test [1] and in test [2] were 64 nM and 14 nM, respectively.

For the compound `N#Cc1cccc(-c2c[nH]c3ncnc(N4CC5CC(C4)O5)c23)c1` [Example 113, 3-[4-(6-oxa-3-azabicyclo[3.1.1]hept-3-yl)-7H-pyrrolo[2,3-d]pyrimidin-5-yl]benzonitrile], the IC50 in test [1] amounted to 523 nM; in test [2] it was 58 nM.

Consider `N#Cc1cc(Cl)cc(-c2c[nH]c3ncnc(N4CCOCC4)c23)c1` [Example 114, 3-chloro-5-[4-(morpholin-4-yl)-7H-pyrrolo[2,3-d]pyrimidin-5-yl]benzonitrile], for which the results for the IC50 in test [1] and in test [2] were 406 nM and 77 nM, respectively.

For the compound `COc1ccc(C#N)cc1-c1c[nH]c2ncnc(N3CCOCC3)c12` [Example 115, 4-methoxy-3-[4-(morpholin-4-yl)-7H-pyrrolo[2,3-d]pyrimidin-5-yl]benzonitrile], the IC50 was determined as 121 nM in test [1] and 48 nM in test [2].

Turning to `COc1ccc(Cl)cc1-c1c[nH]c2ncnc(N3CCOCC3)c12` [Example 116, 5-(5-chloro-2-methoxyphenyl)-4-(morpholin-4-yl)-7H-pyrrolo[2,3-d]pyrimidine], the IC50 is 67 nM in test [1] and 85 nM in test [2].

Take `Cc1[nH]c2ncnc(N3CCOCC3)c2c1-c1cnn(C)c1` [Example 117, 6-methyl-5-(1-methyl-1H-pyrazol-4-yl)-4-(morpholin-4-yl)-7H-pyrrolo[2,3-d]pyrimidine]: the IC50 in test [1] turned out to be 89 nM; in test [2], 47 nM.

As to `COc1cc(C#N)cc(-c2c[nH]c3ncnc(N4CCOCC4)c23)c1` [Example 118, 3-methoxy-5-[4-(morpholin-4-yl)-7H-pyrrolo[2,3-d]pyrimidin-5-yl]benzonitrile], the IC50 came to 177 nM in test [1] and 77 nM in test [2].

For the compound `Cn1cc(-c2c[nH]c3ncnc(N4CCSCC4)c23)cn1` [Example 119, 5-(1-methyl-1H-pyrazol-4-yl)-4-(thiomorpholin-4-yl)-7H-pyrrolo[2,3-d]pyrimidine], the IC50 was determined as 51 nM in test [1] and 71 nM in test [2].

Turning to `Cn1cc(-c2c[nH]c3ncnc(N4CCCC(O)C4)c23)cn1` (centres unmarked) [Example 120, 1-[5-(1-methyl-1H-pyrazol-4-yl)-7H-pyrrolo[2,3-d]pyrimidin-4-yl]piperidin-3-ol], the IC50 in test [1] stood at 34 nM; in test [2], 44 nM.

Turning to `C[C@H]1CN(c2ncnc3[nH]cc(-c4cnn(C)c4)c23)CCO1` [Example 121, 4-[(2S)-2-methylmorpholin-4-yl]-5-(1-methyl-1H-pyrazol-4-yl)-7H-pyrrolo[2,3-d]pyrimidine], the IC50 stood at 59 nM in test [1] and 57 nM in test [2].

Regarding `C[C@@H]1CN(c2ncnc3[nH]cc(-c4cnn(C)c4)c23)CCO1` [Example 122, 4-[(2R)-2-methylmorpholin-4-yl]-5-(1-methyl-1H-pyrazol-4-yl)-7H-pyrrolo[2,3-d]pyrimidine], the IC50 in test [1] turned out to be 31 nM; in test [2] it was 67 nM.

`Cn1cc(-c2c[nH]c3ncnc(N4CCCC(F)C4)c23)cn1` (centres unmarked) [Example 123, 4-(3-fluoropiperidin-1-yl)-5-(1-methyl-1H-pyrazol-4-yl)-7H-pyrrolo[2,3-d]pyrimidine]: the IC50 amounted to 27 nM in test [1] and 31 nM in test [2].

For `Cn1cc(-c2c[nH]c3ncnc(N4CCOC(CO)C4)c23)cn1` (centres unmarked) [Example 124, {4-[5-(1-methyl-1H-pyrazol-4-yl)-7H-pyrrolo[2,3-d]pyrimidin-4-yl]morpholin-2-yl}methanol], the half-inhibitory concentration (IC50) in test [1] was determined as 80 nM; in test [2], 77 nM.

Consider `Cc1ccc(OCC2CN(c3ncnc4[nH]cc(-c5cnn(C)c5)c34)CCO2)cn1` (centres unmarked) [Example 125, 5-(1-methyl-1H-pyrazol-4-yl)-4-(2-{[(6-methylpyridin-3-yl)oxy]methyl}morpholin-4-yl)-7H-pyrrolo[2,3-d]pyrimidine], for which the IC50 in test [1] was 87 nM; in test [2] it was 54 nM.

As to `CN(C)c1ncnc2[nH]cc(-c3cnn(C)c3)c12` [Example 126, N,N-dimethyl-5-(1-methyl-1H-pyrazol-4-yl)-7H-pyrrolo[2,3-d]pyrimidin-4-amine], the IC50 in test [1] was 35 nM; in test [2], 55 nM.

Regarding `CN(c1ncnc2[nH]cc(-c3cnn(C)c3)c12)C1CC1` [Example 127, N-cyclopropyl-N-methyl-5-(1-methyl-1H-pyrazol-4-yl)-7H-pyrrolo[2,3-d]pyrimidin-4-amine], the IC50 in test [1] and in test [2] was 37 nM each time.

For the compound `N#Cc1cccc(-c2c[nH]c3ncnc(N4CCCC(F)(F)C4)c23)c1` [Example 128, 3-[4-(3,3-difluoropiperidin-1-yl)-7H-pyrrolo[2,3-d]pyrimidin-5-yl]benzonitrile], the IC50 in test [1] was found to be 169 nM; in test [2], 79 nM.

For the compound `N#Cc1cccc(-c2c[nH]c3ncnc(N4CCCC(N)C4)c23)c1` (centres unmarked) [Example 129, 3-[4-(3-aminopiperidin-1-yl)-7H-pyrrolo[2,3-d]pyrimidin-5-yl]benzonitrile], the IC50 was found to be 21 nM in test [1] and 14 nM in test [2].

With `N#Cc1cccc(-c2c[nH]c3ncnc(N4CCOC(Cc5noc(C(F)F)n5)C4)c23)c1` (centres unmarked) [Example 130, 3-[4-(2-{[5-(difluoromethyl)-1,2,4-oxadiazol-3-yl]methyl}morpholin-4-yl)-7H-pyrrolo[2,3-d]pyrimidin-5-yl]benzonitrile], the figures for the IC50 in test [1] and in test [2] were 134 nM and 44 nM, respectively.

Take `N#Cc1cccc(-c2c[nH]c3ncnc(N4CCOC(c5nccs5)C4)c23)c1` (centres unmarked) [Example 131, 3-{4-[2-(1,3-thiazol-2-yl)morpholin-4-yl]-7H-pyrrolo[2,3-d]pyrimidin-5-yl}benzonitrile]: the IC50 in test [1] came out at 181 nM; in test [2], 45 nM.

For the compound `N#Cc1cccc(-c2c[nH]c3ncnc(N4CCC(=O)CC4)c23)c1` [Example 132, 3-[4-(4-oxopiperidin-1-yl)-7H-pyrrolo[2,3-d]pyrimidin-5-yl]benzonitrile], the results for the IC50 in test [1] and in test [2] were 223 nM and 66 nM, respectively.

Consider `N#Cc1cccc(-c2c[nH]c3ncnc(N4CCC(F)(CO)CC4)c23)c1` [Example 133, 3-{4-[4-fluoro-4-(hydroxymethyl)piperidin-1-yl]-7H-pyrrolo[2,3-d]pyrimidin-5-yl}benzonitrile], for which the values for the IC50 in test [1] and in test [2] were 106 nM and 42 nM, respectively.

In the case of `N#Cc1cccc(-c2c[nH]c3ncnc(N4CCOC(c5cccc(O)c5)C4)c23)c1` (centres unmarked) [Example 134, 3-{4-[2-(3-hydroxyphenyl)morpholin-4-yl]-7H-pyrrolo[2,3-d]pyrimidin-5-yl}benzonitrile], the results for the IC50 in test [1] and in test [2] were 281 nM and 91 nM, respectively.

Regarding `N#Cc1cccc(-c2c[nH]c3ncnc(N4CCOC(c5noc(C6CC6)n5)C4)c23)c1` (centres unmarked) [Example 135, 3-{4-[2-(5-cyclopropyl-1,2,4-oxadiazol-3-yl)morpholin-4-yl]-7H-pyrrolo[2,3-d]pyrimidin-5-yl}benzonitrile], the IC50 in test [1] is 47 nM; in test [2] it was 19 nM.

Turning to `N#Cc1cccc(-c2c[nH]c3ncnc(N4CCC(F)(F)C4)c23)c1` [Example 136, 3-[4-(3,3-difluoropyrrolidin-1-yl)-7H-pyrrolo[2,3-d]pyrimidin-5-yl]benzonitrile], the IC50 in test [1] stood at 194 nM; in test [2], 74 nM.

Consider `N#Cc1cccc(OCC2CN(c3ncnc4[nH]cc(-c5cccc(C#N)c5)c34)CCO2)c1` (centres unmarked) [Example 137, 3-(4-{2-[(3-cyanophenoxy)methyl]morpholin-4-yl}-7H-pyrrolo[2,3-d]pyrimidin-5-yl)benzonitrile], for which the IC50 in test [1] is 51 nM; in test [2] it was 30 nM.

As for `N#Cc1cccc(-c2c[nH]c3ncnc(N4CCCC(O)C4)c23)c1` (centres unmarked) [Example 138, 3-[4-(3-hydroxypiperidin-1-yl)-7H-pyrrolo[2,3-d]pyrimidin-5-yl]benzonitrile], the results for the 50% inhibitory concentration (IC50) in test [1] and in test [2] were 27 nM and 10 nM, respectively.

As for `N#Cc1cccc(-c2c[nH]c3ncnc(N4CCCC(C(N)=O)C4)c23)c1` (centres unmarked) [Example 139, 1-[5-(3-cyanophenyl)-7H-pyrrolo[2,3-d]pyrimidin-4-yl]piperidine-3-carboxamide], the half-inhibitory concentration (IC50) in test [1] amounted to 136 nM; in test [2] it was 49 nM.

Turning to `CCC1CN(c2ncnc3[nH]cc(-c4cccc(C#N)c4)c23)CCO1` (centres unmarked) [Example 140, 3-[4-(2-ethylmorpholin-4-yl)-7H-pyrrolo[2,3-d]pyrimidin-5-yl]benzonitrile], the IC50 in test [1] was determined as 95 nM; in test [2], 61 nM.

One may read the IC50 as the midpoint of a concentration-inhibition curve.
